Like-named read-outs stand apart in the source and are kept apart here.
Biological target: T1, pSTAT3 (pY705-STAT3) (Homo sapiens, UniProt P40763)
T1 construct: host or cells: cryopreserved PBMC
Assay: MSD-pSTAT-PBMC Assay (pSTAT3, IL-6 stimulated)
Type: cell-based
Excerpt: Cryopreserved Peripheral Blood Mononuclear Cells (PBMC) are from AllCells. Recombinant Human IL-4 and IL-6 are from Peprotech. Mouse monoclonal anti-STAT3 antibody, rabbit monoclonal anti-pY705-STAT3 antibody, rabbit monoclonal Anti-pY641-STAT6 antibody, and lysis buffer are from Cell Signaling Technology (CST). Mouse monoclonal anti-STAT6 antibody is from BioLegend. Assay plates, blocker, and anti-rabbit secondary antibody are from Meso Scale Discovery (MSD).
Cryopreserved PBMCs were thawed out and allowed to recover overnight in IMDM+10% heat-inactivated FBS prior to plating 50,000 (STAT3) or 25,000 (STAT6) cells per well in 96-well U-bottom tissue culture plates. Cells were treated with compound for 3 hrs, then stimulated with 10 ng/mL IL-6 (STAT3) or 1 ng/mL IL-4 (STAT6) for 10 min. Cells were then spun down and washed with ice-cold PBS prior to lysing the cell pellet with 1× lysis buffer (CST) with 1× HALT protease and phosphatase inhibitor cocktail (Thermo). Lysates were transferred to and incubated overnight at 4° C. with shaking in QuickPlex 96-well high bind assay plates (MSD) pre-coated overnight with 30 μL per well of 0.6 μg/mL mouse monoclonal anti-STAT3 antibody (STAT3) or 2 μg/mL mouse monoclonal anti-STAT6 antibody (STAT6) in 1×PBS, and pre-blocked for 1 hour with 3% Blocker-A (MSD). Captured protein in the assay plates were then washed and probed with 25 μL per well of 0.25 μg/ml rabbit monoclonal anti-pY705-STAT3 antibody (STAT3) or 0.18 μg/ml rabbit monoclonal Anti-pY641-STAT6 antibody (STAT6) in 1% Blocker-A for 1 hour at room temperature with shaking, then washed and probed with 25 ul per well of 1 ug/mi Sulfo-TAG Labeled Goat Anti-Rabbit Antibody (MSD) in 1% Blocker-A for 1 hour at room temperature with shaking. Assay plates were then washed and 150 μL of 1× Read Buffer-T (MSD) was added to each well prior to reading on an SQ120 MSD Plate Reader. Assay signal from each sample was subtracted by the signal from unstimulated control wells and normalized to DMSO control wells. IC50 values were calculated using Graph Pad Prism Dose-Response Nonlinear Regression with variable slope. For both pSTAT3 and pSTAT6 A=≤100 nM; B=>100-1000 nM; C=>1000-3000 nM; and D=>3 μM.

[1] = PBMC, compound 3 hrs, then 10 ng/mL IL-6 for 10 min, MSD pY705-STAT3, read-out: pSTAT3

T1 sequence (P40763 whole entry): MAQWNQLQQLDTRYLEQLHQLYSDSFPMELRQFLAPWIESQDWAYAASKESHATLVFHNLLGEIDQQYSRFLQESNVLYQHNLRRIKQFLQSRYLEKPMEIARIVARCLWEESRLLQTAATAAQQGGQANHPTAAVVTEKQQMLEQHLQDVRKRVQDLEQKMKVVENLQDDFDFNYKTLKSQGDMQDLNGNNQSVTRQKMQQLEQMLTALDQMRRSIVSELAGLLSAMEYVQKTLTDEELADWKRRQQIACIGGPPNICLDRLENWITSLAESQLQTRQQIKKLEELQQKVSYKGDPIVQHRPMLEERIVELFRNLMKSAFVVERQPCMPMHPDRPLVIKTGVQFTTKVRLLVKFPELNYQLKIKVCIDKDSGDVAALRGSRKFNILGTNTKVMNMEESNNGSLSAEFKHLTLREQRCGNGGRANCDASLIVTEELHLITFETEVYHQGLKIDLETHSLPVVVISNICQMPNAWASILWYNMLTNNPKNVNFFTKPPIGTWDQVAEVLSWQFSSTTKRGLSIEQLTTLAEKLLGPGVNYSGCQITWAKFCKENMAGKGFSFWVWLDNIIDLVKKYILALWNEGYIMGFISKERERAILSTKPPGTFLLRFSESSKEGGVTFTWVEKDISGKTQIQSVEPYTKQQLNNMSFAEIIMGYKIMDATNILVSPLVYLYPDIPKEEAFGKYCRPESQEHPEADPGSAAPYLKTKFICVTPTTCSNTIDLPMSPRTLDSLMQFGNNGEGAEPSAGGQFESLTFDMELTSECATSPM

In the case of `CCCOC(=O)[C@@H](C)NP(=O)(Oc1ccccc1)C(F)c1ccc2sc(C(=O)N[C@H]3C[C@@H]4C[C@@H]4C[C@H]4CC[C@@H](C(=O)N5C[C@@H]6[C@H]5CCN6C(C)=O)N4C3=O)cc2c1` (stereo in doubt) [Compound 291, propyl(((2-(((3S,6S,7aS,8aR,9aR)-3-((1S,5S)-2-acetyl-2,6-diazabicyclo[3.2.0]heptane-6-carbonyl)-5-oxodecahydro-1H-cyclopropa[d]pyrrolo[1,2-a]azocin-6-yl)carbamoyl)benzo[b]thiophen-5-yl)fluoromethyl)(phenoxy)phosphoryl)-L-alaninate], the IC50 is reported as under 100 nM.

With `CCCOC(=O)C(C)NP(=O)(Oc1ccccc1)C(F)c1ccc2sc(C(=O)N[C@H]3C[C@@H]4C[C@@H]4C[C@H]4CC[C@@H](C(=O)N5C[C@H]6[C@@H]5CCN6c5cccnc5)N4C3=O)cc2c1` (stereo in doubt) [Compound 297, propyl ((fluoro(2-(((3S,6S,7aS,8aR,9aR)-5-oxo-3-((1S,5S)-2-(pyridin-3-yl)-2,6-diazabicyclo[3.2.0]heptane-6-carbonyl)decahydro-1H-cyclopropa[d]pyrrolo[1,2-a]azocin-6-yl)carbamoyl)benzo[b]thiophen-5-yl)methyl)(phenoxy)phosphoryl)-L-alaninate] the IC50 [1] was under 100 nM.

Work on `CCCOC(=O)C(C)NP(=O)(Oc1ccccc1)C(F)c1ccc2sc(C(=O)N[C@H]3C[C@@H]4C[C@@H]4C[C@H]4CC[C@@H](C(=O)N5C[C@@H]6[C@H]5CCN6c5cccnc5)N4C3=O)cc2c1` (stereo in doubt) [Compound 298, propyl ((fluoro(2-(((3S,6S,7aS,8aR,9aR)-5-oxo-3-((1R,5R)-2-(pyridin-3-yl)-2,6-diazabicyclo[3.2.0]heptane-6-carbonyl)decahydro-1H-cyclopropa[d]pyrrolo[1,2-a]azocin-6-yl)carbamoyl)benzo[b]thiophen-5-yl)methyl)(phenoxy)phosphoryl)-L-alaninate] yielded an IC50 [1] of under 100 nM.

In the case of `CCCOC(=O)[C@H](C)NP(=O)(Oc1ccccc1)C(F)c1ccc2sc(C(=O)N[C@H]3C[C@H]4C[C@H]4C[C@H]4CC[C@@H](C(=O)N5CC(c6cnccc6N6CCOCC6)C5)N4C3=O)cc2c1` (stereo in doubt) [Compound 409, propyl(((R)-fluoro(2-(((3S,6S,7aS,8aR,9aR)-3-(3-(4-morpholinopyridin-3-yl)azetidine-1-carbonyl)-5-oxodecahydro-1H-cyclopropa[d]pyrrolo[1,2-a]azocin-6-yl)carbamoyl)benzo[b]thiophen-5-yl)methyl)(phenoxy)phosphoryl)-L-alaninate], the IC50 is reported as under 100 nM.

In the case of `CCCOC(=O)[C@H](C)N[P@@](=O)(Oc1ccccc1)[C@H](F)c1ccc2sc(C(=O)N[C@H]3C[C@@H]4C[C@@H]4C[C@H]4CC[C@@H](C(=O)N5CC(c6cnccc6N(C)C)C5)N4C3=O)cc2c1` (stereo in doubt) [Compound 415, propyl((R)-((R)-(2-(((3S,6S,7aS,8aR,9aR)-3-(3-(4-(dimethylamino)pyridin-3-yl)azetidine-1-carbonyl)-5-oxodecahydro-1H-cyclopropa[d]pyrrolo[1,2-a]azocin-6-yl)carbamoyl)benzo[b]thiophen-5-yl)fluoromethyl)(phenoxy)phosphoryl)-L-alaninate], the IC50 is reported as under 100 nM.

`CCCOC(=O)[C@H](C)NP(=O)(Oc1ccccc1)[C@@H](F)c1ccc2sc(C(=O)N[C@H]3C[C@H]4C[C@H]4C[C@H]4CC[C@@H](C(=O)N5CC(c6cnccc6N6CC[C@H]6COC)C5)N4C3=O)cc2c1` (stereo in doubt) [Compound 417, propyl(((R)-fluoro(2-(((3S,6S,7aS,8aR,9aR)-3-(3-(4-((S)-2-(methoxymethyl)azetidin-1-yl)pyridin-3-yl)azetidine-1-carbonyl)-5-oxodecahydro-1H-cyclopropa[d]pyrrolo[1,2-a]azocin-6-yl)carbamoyl)benzo[b]thiophen-5-yl)methyl)(phenoxy)phosphoryl)-L-alaninate] gave an IC50 of under 100 nM.

From patent US20250215030A1, “STAT MODULATORS AND USES THEREOF” (Recludix Pharma, Inc., priority 2022, published 2025)
